Assay results published in US10161929B2, “Theranostics platform and methods of use” (Sanford Burnham Prebys Medical Discovery Institute, priority 2012, dated 2018).

How the values were obtained:
Format in all cases: cell-based, human
[1] = test system: fibroblasts from the CMD-FKRP patient; experiment: Laminin binding, fibroblasts from FKRP deficient patients (FIG. 6, FIG. 9)
Text: FIG. 6. Fibroblasts were obtained from CMD patients with either low (CMD-FKRP) laminin binding, mid-range laminin binding (LGMD/CMD-FKRP), or closer to normal (LGMD-FKRP) laminin binding. […] Laminin was labeled with rabbit anti-laminin antibodies. Nuclei are stained with DAPI.
(§1) FIG. 9. Fibroblasts were taken from an FKRP deficient CMD patient and a POMT1 deficient CMD patient. […] Laminin is labeled with rabbit anti-laminin antibodies. Nuclei are stained with DAPI.
Fibroblasts obtained from a muscular dystrophy patient were seeded at 3000 cells per well in 384-well plates and treated in duplicate at 10 μm with individual compounds from the drug/nutraceutical library. After 48 hours in culture conditions, the cells were exposed to serum free media containing 0.1% BSA and 10 ug/ml laminin from Engelbreth-Holm-Swarm murine sarcoma basement membrane for a period of 2 hours. […]
(§2) Image analysis was performed to quantify levels of laminin staining using a customized algorithm written with Acapella software (Perkin Elmer). The cytoplasm was defined using DAPI staining as a mask, and the average cytoplasmic intensity of fluorescence per cell was calculated on the basis of at least six random fields captured per well.

[2] = test system: fibroblasts from the CMD-POMT1 patient; experiment: Laminin binding, fibroblasts from a POMT1 deficient CMD patient (FIG. 9)
Experimental: as §1
(§3) Fibroblasts obtained from a muscular dystrophy patient were seeded at 3000 cells per well in 384-well plates and treated in duplicate at 10 μm with individual compounds from the drug/nutraceutical library. After 48 hours in culture conditions, the cells were exposed to serum free media containing 0.1% BSA and 10 ug/ml laminin from Engelbreth-Holm-Swarm murine sarcoma basement membrane for a period of 2 hours. Cells were then fixed with 4% paraformaldehyde and stained with DAPI and a laminin-specific antibody, followed by a fluorescently labeled secondary antibody directed against the laminin specific antibody. The plates were then scanned using an Opera high content confocal microscopy screening system (PerkinElmer) at 20× magnification with separate fluorescent exposures, utilizing a UV light source and a 561 nm laser.
as §2

[3] = test system: Fibroblasts obtained from a muscular dystrophy patient; experiment: Laminin binding assay (high content screen) in fibroblasts from a muscular dystrophy patient; conditions: for hit in the laminin binding screen (normalizes fibroblast laminin binding; at least 20% activity compared with controls): 10 μm, duplicate, 48 hours, 384-well plates, anti-laminin staining
Experimental: as §3, §2
A compound in the drug/nutraceutical library was considered to normalize the level of fibroblast laminin binding if the compound scored at least 20% activity compared with controls. Fibroblasts from a healthy individual, or from patient cells treated with Trichostatin A at 2 uM were used as positive controls.
Trichostatin A, SAHA, and Givinostat (another HDAC inhibitor in the same class as Trichostatin A and SAHA) were further tested in an eight-point dose-response assay (at a range of 20-0.02 μm, at three fold dilutions) in triplicate.

[4] = test system: Immortalized fibroblasts from a CMD patient; experiment: Laminin binding, immortalized fibroblasts from a CMD patient (FIG. 5); conditions: dose response curve
Experimental: as §3, with “FIG. 5. […] A dose response curve for Givinostat was prepared measuring laminin staining intensity at various concentrations of the compound. Laminin was labeled with rabbit anti-laminin antibodies. Nuclei are stained with DAPI. Fibroblasts” for “Fibroblasts”, “laser. Image analysis was performed to quantify levels of laminin staining using a customized algorithm written with Acapella software (Perkin Elmer). The cytoplasm was defined using DAPI staining as a mask, and the average cytoplasmic intensity of fluorescence per cell was calculated on the basis of at least six random fields captured per well.” for “laser.”

| laminin binding ([1]; fibroblasts from the CMD-FKRP patient, FIG. 9) | laminin binding ([1]; fibroblasts with low (CMD-FKRP), mid-range (LGMD/CMD-FKRP) or closer to normal (LGMD-FKRP) laminin binding, FIG. 6) | hit in the laminin binding screen (normalizes fibroblast laminin binding; at least 20% activity compared with controls) [3] | Compound | laminin binding [2] | levels of laminin binding (laminin staining intensity) [4] | laminin binding of patient's fibroblasts after treatment ([3]; fibroblasts from a CMD-affected patient, compared with unaffected sibling, rabbit anti-laminin antibodies, FIG. 4) |
| --- | --- | --- | --- | --- | --- | --- |
| increased laminin binding | increased laminin binding | identified as hits | CC(/C=C/C(=O)NO)=C\[C@@H](C)C(=O)c1ccc(N(C)C)cc1 [Trichostatin A] | did not result in visibly increased laminin binding |  |  |
|  |  |  | CCN(CC)Cc1ccc2cc(COC(=O)Nc3ccc(C(=O)NO)cc3)ccc2c1 [Givinostat] |  | increased levels of laminin binding |  |
|  |  | identified as hits | O=C(CCCCCCC(=O)Nc1ccccc1)NO [SAHA] |  |  | normalized to the levels of the patient's unaffected sibling |
